Measurements reported in US9095138B2, “Isoxazoline insecticides” (E.I. du Pont de Nemours and Company, priority 2007, dated 2015).

What was measured:
Assay type in all cases: in vivo
[1] = tested on: western flower thrips (Frankliniella occidentalis); experiment: Test E: control of western flower thrips on Soleil bean plant, contact and/or systemic; details: adult thrips, assessed after 6 days, replicated three times
Experimental: (§1) Test compounds were formulated using a solution containing 10% acetone, 90% water and 300 ppm X-77™ Spreader Lo-Foam Formula non-ionic surfactant containing alkylarylpolyoxyethylene, free fatty acids, glycols and isopropanol (Loveland Industries, Inc. Greeley, Colo., USA). The formulated compounds were applied in 1 mL of liquid through a SUJ2 atomizer nozzle with ⅛ JJ custom body (Spraying Systems Co. Wheaton, Ill., USA) positioned 1.27 cm (0.5 inches) above the top of each test unit. All experimental compounds in these tests were sprayed at 50 ppm, and the test was replicated three times. After spraying of the formulated test compound, each test unit was allowed to dry for 1 h and then a black, screened cap was placed on top. The test units were held for 6 days in a growth chamber at 25° C. and 70% relative humidity. Plant feeding damage was then visually assessed based on foliage consumed and a pest mortality rating was also counted and calculated for each test unit.
For evaluating control of the western flower thrips (Frankliniella occidentalis) through contact and/or systemic means, the test unit consisted of a small open container with a 5-7 day old Soleil Bean plant inside. Test compounds were formulated and sprayed as described for Test A. All experimental compounds in these tests were sprayed at 250 or 50 ppm as noted, and the test was replicated three times. After spraying, the test units were allowed to dry for 1 hour and then 22-27 adult thrips were added to each unit and then a black, screened cap was placed on top. The test units were held for 6 days at 25° C. and 45-55% relative humidity. A mortality rating was assessed along with a plant damage rating for each test unit.

[2] = tested on: fall armyworm (Spodoptera frugiperda); experiment: Test B: control of fall armyworm on corn (maize) plant, foliar spray; details: sprayed at 50 ppm; 1-day-old larvae on corn; replicated three times
Experimental: as §1
For evaluating control of fall armyworm (Spodoptera frugiperda) the test unit consisted of a small open container with a 4-5-day-old corn (maize) plant inside. This was pre-infested (using a core sampler) with 10-15 1-day-old larvae on a piece of insect diet. Test compounds were formulated and sprayed at 50 ppm as described for Test A and replicated three times. After spraying, the test units were maintained in a growth chamber and then the control efficacy was rated for each test unit as described for Test A.

[3] = tested on: diamondback moth (Plutella xylostella); experiment: Test A: control of diamondback moth on radish plant, foliar spray; details: sprayed at 50 ppm; neonate larvae on radish; assessed after 6 days; replicated three times
Text: For evaluating control of diamondback moth (Plutella xylostella) the test unit consisted of a small open container with a 12-14-day-old radish plant inside. This was pre-infested with about 50 neonate larvae that were dispensed into the test unit via corn-cob grits using a bazooka inoculator. The larvae moved onto the test plant after being dispensed into the test unit.
as §1

| Structure (SMILES) | control efficacy (feeding damage or mortality): very good to excellent levels ([1]; sprayed at 50 ppm) | control efficacy (feeding damage or mortality): very good to excellent levels ([1]; sprayed at 250 ppm) | control efficacy (feeding damage or mortality): very good to excellent levels [2] | control efficacy (feeding damage or mortality): very good to excellent levels [3] |
| --- | --- | --- | --- | --- |
| COCCNC(=O)CNC(=O)c1ccc(C2=NOC(c3cc(Cl)cc(Cl)c3)(C(F)(F)F)C2)c2ccccc12 (stereo not drawn) [Compound 47] | 20% or less feeding damage or 80% or more mortality | 20% or less feeding damage or 80% or more mortality | 20% or less feeding damage or 80% or more mortality | 20% or less feeding damage or 80% or more mortality |
| CSCCNC(=O)CNC(=O)c1ccc(C2=NOC(c3cc(Cl)c(Cl)c(Cl)c3)(C(F)(F)F)C2)c2ccccc12 (stereo not drawn) [Compound 49] | – | 20% or less feeding damage or 80% or more mortality | 20% or less feeding damage or 80% or more mortality | 20% or less feeding damage or 80% or more mortality |
| O=C(CNC(=O)c1ccc(C2=NOC(c3cc(Cl)cc(Cl)c3)(C(F)(F)F)C2)c2ccccc12)NC1CC1 (stereo not drawn) [Compound 50] | 20% or less feeding damage or 80% or more mortality | 20% or less feeding damage or 80% or more mortality | 20% or less feeding damage or 80% or more mortality | 20% or less feeding damage or 80% or more mortality |
| C[C@@H](NC(=O)c1ccc(C2=NOC(c3cc(Cl)cc(Cl)c3)(C(F)(F)F)C2)c2ccccc12)C(=O)NC1CC1 (stereo partly drawn) [Compound 53] | 20% or less feeding damage or 80% or more mortality | 20% or less feeding damage or 80% or more mortality | 20% or less feeding damage or 80% or more mortality | 20% or less feeding damage or 80% or more mortality |
| O=C(CNC(=O)c1ccc(C2=NOC(c3cc(C(F)(F)F)cc(C(F)(F)F)c3)(C(F)(F)F)C2)c2ccccc12)NC1CC1 (stereo not drawn) [Compound 55] | 20% or less feeding damage or 80% or more mortality | 20% or less feeding damage or 80% or more mortality | 20% or less feeding damage or 80% or more mortality | 20% or less feeding damage or 80% or more mortality |
| C[C@@H](NC(=O)c1ccc(C2=NOC(c3cc(C(F)(F)F)cc(C(F)(F)F)c3)(C(F)(F)F)C2)c2ccccc12)C(=O)NC1CC1 (stereo partly drawn) [Compound 64] | 20% or less feeding damage or 80% or more mortality | 20% or less feeding damage or 80% or more mortality | 20% or less feeding damage or 80% or more mortality | 20% or less feeding damage or 80% or more mortality |
| C[C@@H](NC(=O)c1ccc(C2=NOC(c3cc(C(F)(F)F)cc(C(F)(F)F)c3)(C(F)(F)F)C2)c2ccccc12)C(N)=O (stereo partly drawn) [Compound 65] | 20% or less feeding damage or 80% or more mortality | – | 20% or less feeding damage or 80% or more mortality | 20% or less feeding damage or 80% or more mortality |
| C[C@@H](NC(=O)c1ccc(C2=NOC(c3cc(C(F)(F)F)cc(C(F)(F)F)c3)(C(F)(F)F)C2)c2ccccc12)C(=O)NCC1CC1 (stereo partly drawn) [Compound 66] | 20% or less feeding damage or 80% or more mortality | 20% or less feeding damage or 80% or more mortality | 20% or less feeding damage or 80% or more mortality | 20% or less feeding damage or 80% or more mortality |
| CC(NC(=O)c1ccc(C2=NOC(c3cc(C(F)(F)F)cc(C(F)(F)F)c3)(C(F)(F)F)C2)c2ccccc12)C(=O)NC1CC1 (stereo not drawn) [Compound 67] | 20% or less feeding damage or 80% or more mortality | 20% or less feeding damage or 80% or more mortality | 20% or less feeding damage or 80% or more mortality | 20% or less feeding damage or 80% or more mortality |
| CC(NC(=O)c1ccc(C2=NOC(c3cc(C(F)(F)F)cc(C(F)(F)F)c3)(C(F)(F)F)C2)c2ccccc12)C(=O)NCC1CC1 (stereo not drawn) [Compound 68] | 20% or less feeding damage or 80% or more mortality | 20% or less feeding damage or 80% or more mortality | 20% or less feeding damage or 80% or more mortality | 20% or less feeding damage or 80% or more mortality |
| CC(NC(=O)c1ccc(C2=NOC(c3cc(C(F)(F)F)cc(C(F)(F)F)c3)(C(F)(F)F)C2)c2ccccc12)C(N)=O (stereo not drawn) [Compound 69] | 20% or less feeding damage or 80% or more mortality | – | 20% or less feeding damage or 80% or more mortality | 20% or less feeding damage or 80% or more mortality |
| NC(=O)CNC(=O)c1ccc(C2=NOC(c3cc(C(F)(F)F)cc(C(F)(F)F)c3)(C(F)(F)F)C2)c2ccccc12 (stereo not drawn) [Compound 70] | 20% or less feeding damage or 80% or more mortality | – | 20% or less feeding damage or 80% or more mortality | 20% or less feeding damage or 80% or more mortality |
| O=C(CNC(=O)c1ccc(C2=NOC(c3cc(C(F)(F)F)cc(C(F)(F)F)c3)(C(F)(F)F)C2)c2ccccc12)NCC1CC1 (stereo not drawn) [Compound 71] | 20% or less feeding damage or 80% or more mortality | – | 20% or less feeding damage or 80% or more mortality | 20% or less feeding damage or 80% or more mortality |
| C[C@@H](NC(=O)c1ccc(C2=NOC(c3cc(Cl)cc(C(F)(F)F)c3)(C(F)(F)F)C2)c2ccccc12)C(=O)NC1CC1 (stereo partly drawn) [Compound 72] | 20% or less feeding damage or 80% or more mortality | 20% or less feeding damage or 80% or more mortality | 20% or less feeding damage or 80% or more mortality | 20% or less feeding damage or 80% or more mortality |
| C[C@@H](NC(=O)c1ccc(C2=NOC(c3cc(Cl)cc(C(F)(F)F)c3)(C(F)(F)F)C2)c2ccccc12)C(=O)NCC1CC1 (stereo partly drawn) [Compound 73] | 20% or less feeding damage or 80% or more mortality | 20% or less feeding damage or 80% or more mortality | 20% or less feeding damage or 80% or more mortality | 20% or less feeding damage or 80% or more mortality |
| C[C@@H](NC(=O)c1ccc(C2=NOC(c3cc(Cl)cc(C(F)(F)F)c3)(C(F)(F)F)C2)c2ccccc12)C(N)=O (stereo partly drawn) [Compound 74] | 20% or less feeding damage or 80% or more mortality | 20% or less feeding damage or 80% or more mortality | 20% or less feeding damage or 80% or more mortality | 20% or less feeding damage or 80% or more mortality |
| O=C(CNC(=O)c1ccc(C2=NOC(c3cc(Cl)cc(C(F)(F)F)c3)(C(F)(F)F)C2)c2ccccc12)NCC1CC1 (stereo not drawn) [Compound 76] | 20% or less feeding damage or 80% or more mortality | 20% or less feeding damage or 80% or more mortality | 20% or less feeding damage or 80% or more mortality | 20% or less feeding damage or 80% or more mortality |
